The values that follow come from patent publication US10821115B2, “Compounds that inhibit Mcl-1 protein” (priority 2017, dated 2020).

Read-outs that look alike come from different tables or passages of the source.

Test [1] deals with recombinant human Mcl-1 (residues 171-327) / Bim interaction (Homo sapiens (Human), UniProt Q07820). Briefly: biochemical. In kind it is binding. The following applies: read-out: Mcl-1 HTRF IC50.
The subject of test [2] is human multiple myeloma cell line, OPM-2. Briefly: Cell viability assay (OPM-2 10 FBS), CellTiter-Glo. In kind it is cell-based. In outline: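 3000 cells/well, RPMI 1640 + 10% FBS; serial compound dilutions, 16 h, 37 °C/5% CO2.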
Where [3] appears, read: TR-FRET, Mcl-1(171-327) / biotin-Bim (51-76).
[4] abbreviates: Homo sapiens, OPM-2, 16 h, read-out: OPM-2 10% FBS IC50 IP, OPM-2 cells, 10% FBS, 16 h, CellTiter-Glo.
Setting [5] is: read-out: OPM-2 10% FBS IC50 IP, OPM-2 cells, 10% FBS, 16 h, CellTiter-Glo.
Where [6] appears, read: 0.1 nM Mcl-1(171-327), 0.05 nM biotin-Bim (51-76).
Setting [7] is: Homo sapiens, OPM-2, 16 h, read-out: OPM-2 10% FBS IC50 IP, OPM-2 cells, 10% FBS, 16 h incubation.
Setting [8] is: read-out: OPM-2 10% FBS IC50 IP, OPM-2 cells, 10% FBS, 16 h incubation.

Chain of recombinant human Mcl-1 (residues 171-327) / Bim interaction (Q07820 171-327): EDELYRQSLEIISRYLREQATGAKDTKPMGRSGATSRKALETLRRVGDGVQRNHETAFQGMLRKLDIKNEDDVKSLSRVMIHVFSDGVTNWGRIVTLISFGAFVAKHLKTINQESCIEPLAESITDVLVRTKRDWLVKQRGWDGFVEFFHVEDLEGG

Take `CO[C@@]1(CC(=O)N(C)C)CCC[C@H](C)[C@@H](C)S(=O)(=O)NC(=O)c2ccc3c(c2)N(C[C@@H]2CC[C@H]21)C[C@@]1(CCCc2cc(Cl)ccc21)CO3` [Example 100176, 2-((1S,3′R,6′R,7′R,11′S,12′R)-6-chloro-7′-methoxy-11′,12′-dimethyl-13′,13′-dioxido-15′-oxo-3,4-dihydro-2H-spiro[naphthalene-1,22′-[20]oxa[13]thia[1,14]diazatetracyclo [14.7.2.0~3,6~.0~19,24~]pentacosa[16,18,24]trien]-7′-yl)-N,N-dimethylacetamide]: the values for the IC50 in test [1] (setting [3]) and in test [2] (setting [4]) were 0.48 nM and 603 nM, respectively.

On to `C[C@@H]1[C@@H](C)C/C=C/[C@@](O)(Cc2ccccn2)[C@@H]2CC[C@H]2CN2C[C@@]3(CCCc4cc(Cl)ccc43)COc3ccc(cc32)C(=O)NS1(=O)=O` [Example 100241, (1S,3′R,6′R,7′S,8′E,11′S,12′R)-6-chloro-7′-hydroxy-11′,12′-dimethyl-7′-(2-pyridinylmethyl)-3,4-dihydro-2H,15′H-spiro[naphthalene-1,22′-[20]oxa[13]thia[1,14]diazatetracyclo [14.7.2.0~3,6~.0~19,24~]pentacosa[8,16,18,24]tetraen]-15′-one 13′,13′-dioxide], for which the figures for the concentration for half-maximal inhibition (IC50) in test [1] (setting [3]) and in test [2] (setting [5]) were 0.365 nM and 401 nM, respectively.

As for `C[C@@H]1[C@@H](C)C/C=C/[C@@](O)(c2cccnc2)[C@@H]2CC[C@H]2CN2C[C@@]3(CCCc4cc(Cl)ccc43)COc3ccc(cc32)C(=O)NS1(=O)=O` [Example 100384, (1S,3′R,6′R,7′S,8′E,11′S,12′R)-6-chloro-7′-hydroxy-11′,12′-dimethyl-7′-(3-pyridinyl)-3,4-dihydro-2H,15′H-spiro[naphthalene-1,22′-[20]oxa[13]thia[1,14]diazatetracyclo [14.7.2.0~3,6~.0~19,24~]pentacosa[8,16,18,24]tetraen]-15′-one 13′,13′-dioxide], the IC50 in test [1] (setting [3]) was 0.821 nM; in test [2] (setting [4]), 729 nM.

Take `COCCN1[C@H](C)CN(C[C@]2(OC)/C=C/C[C@H](C)[C@@H](C)S(=O)(=O)NC(=O)c3ccc4c(c3)N(C[C@@H]3CC[C@H]32)C[C@@]2(CCCc3cc(Cl)ccc32)CO4)C[C@@H]1C` [Example 324, (1S,3′R,6′R,7′S,8′E,11′S,12′R)-6-chloro-7′-methoxy-7′-(((3R,5S)-4-(2-methoxyethyl)-3,5-dimethyl-1-piperazinyl)methyl)-11′,12′-dimethyl-3,4-dihydro-2H,15′H-spiro[naphthalene-1,22′-[20]oxa[13]thia[1,14]diazatetracyclo [14.7.2.0~3,6~.0~19,24~]pentacosa[8,16,18,24]tetraen]-15′-one 13′,13′-dioxide]: the IC50 in test [1] (setting [6]) stood at 0.136 nM; in test [2] (setting [7]), 57 nM.

`CO[C@]1(CN2CCN3CCC[C@@H]3C2)/C=C/C[C@H](C)[C@@H](C)S(=O)(=O)NC(=O)c2ccc3c(c2)N(C[C@@H]2CC[C@H]21)C[C@@]1(CCCc2cc(Cl)ccc21)CO3` [Example 83]: the results for the IC50 in test [1] (setting [6]) and in test [2] (setting [8]) were 0.223 nM and 245 nM, respectively.

As to `C[C@@H]1CS(=O)(=O)NC(=O)c2ccc3c(c2)N(C[C@@H]2CC[C@H]2[C@](O)(C2SCCCS2)/C=C/[C@@H]1C)C[C@@]1(CCCc2cc(Cl)ccc21)CO3` [Example 100566, (1S,3′R,6′R,7′S,8′E,10′S,11′S)-6-chloro-7′-(1,3-dithian-2-yl)-7′-hydroxy-10′,11′-dimethyl-3,4-dihydro-2H,15′H-spiro[naphthalene-1,22′-[20]oxa[13]thia[1,14]diazatetracyclo [14.7.2.0~3,6~.0~19,24~]pentacosa[8,16,18,24]tetraen]-15′-one 13′,13′-dioxide], the IC50 is 0.142 nM in test [1] (setting [3]) and 590 nM in test [2] (setting [4]).

Turning to `C[C@@H]1[C@@H](C)C/C=C/[C@@](O)(CC(=O)N(C)CCN(C)C)[C@@H]2CC[C@H]2CN2C[C@@]3(CCCc4cc(Cl)ccc43)COc3ccc(cc32)C(=O)NS1(=O)=O` [Example 100281, 2-((1S,3′R,6′R,7′S,8′E,11′S,12′R)-6-chloro-7′-hydroxy-11′,12′-dimethyl-13′,13′-dioxido-15′-oxo-3,4-dihydro-2H-spiro[naphthalene-1,22′-[20]oxa[13]thia[1,14]diazatetracyclo [14.7.2.0~3,6~.0~19,24~]pentacosa[8,16,18,24]tetraen]-7′-yl)-N-(2-(dimethylamino)ethyl)-N-methylacetamide], the IC50 in test [1] (setting [3]) is 0.117 nM; in test [2] (setting [5]) it was 352 nM.

As for `CO[C@@]1(CN2CCN3CCN(C(=O)CCS(=O)(=O)c4ccccc4)C[C@H]3C2)/C=C/C[C@H](C)[C@@H](C)S(=O)(=O)NC(=O)c2ccc3c(c2)N(C[C@@H]2CC[C@H]21)C[C@@]1(CCCc2cc(Cl)ccc21)CO3` (single isomer, unassigned) [Example 295], the half-maximal inhibitory concentration (IC50) was 0.321 nM in test [1] (setting [6]) and 104 nM in test [2] (setting [8]).

As to `C[C@@H]1[C@@H](C)C/C=C/[C@@](O)(C#N)[C@@H]2CC[C@H]2CN2C[C@@]3(CCCc4cc(Cl)ccc43)COc3ccc(cc32)C(=O)NS1(=O)=O` [Example 100235, (1S,3′R,6′R,7′S,8′E,11′S,12′R)-6-chloro-7′-hydroxy-11′,12′-dimethyl-15′-oxo-3,4-dihydro-2H-spiro[naphthalene-1,22′-[20]oxa[13]thia[1,14]diazatetracyclo [14.7.2.0~3,6~.0~19,24~]pentacosa[8,16,18,24]tetraene]-7′-carbonitrile 13′,13′-dioxide], the IC50 in test [1] (setting [3]) came to 1.34 nM; in test [2] (setting [4]) it was 644 nM.

Consider `CO[C@]1(CN2CCN3C(=O)OC[C@@H]3C2)/C=C/C[C@H](C)[C@@H](C)S(=O)(=O)NC(=O)c2ccc3c(c2)N(C[C@@H]2CC[C@H]21)C[C@@]1(CCCc2cc(Cl)ccc21)CO3` [Example 64, (1S,3′R,6′R,7′R,8′E,11′S,12′R)-6-chloro-7′-methoxy-11′,12′-dimethyl-7′-(((8aS)-3-oxotetrahydro[1,3]oxazolo[3,4-a]pyrazin-7(1H)-yl)methyl)-3,4-dihydro-2H,15′H-spiro[naphthalene-1,22′-[20]oxa[13]thia[1,14]diazatetracyclo [14.7.2.0~3,6~.0~19,24~]pentacosa[8,16,18,24]tetraen]-15′-one 13′,13′-dioxide], for which the IC50 in test [1] (setting [6]) is 0.126 nM; in test [2] (setting [7]) it was 201 nM.

In the case of `CO[C@@]1(CC(=O)N(C)CC(F)(F)F)/C=C/C[C@H](C)[C@@H](C)S(=O)(=O)NC(=O)c2ccc3c(c2)N(C[C@@H]2CC[C@H]21)C[C@@]1(CCCc2cc(Cl)ccc21)CO3` [Example 100375, 2-((1S,3′R,6′R,7′S,8′E,11′S,12′R)-6-chloro-7′-methoxy-11′,12′-dimethyl-13′,13′-dioxido-15′-oxo-3,4-dihydro-2H-spiro[naphthalene-1,22′-[20]oxa[13]thia[1,14]diazatetracyclo [14.7.2.0~3,6~.0~19,24~]pentacosa[8,16,18,24]tetraen]-7′-yl)-N-methyl-N-(2,2,2-trifluoroethyl)acetamide], the concentration for half-maximal inhibition (IC50) in test [1] (setting [3]) came to 0.07 nM; in test [2] (setting [4]) it was 176 nM.

Turning to `C=CCO[C@]1(CN2CCN3CCOC[C@@H]3C2)/C=C/C[C@H](C)[C@@H](C)S(=O)(=O)NC(=O)c2ccc3c(c2)N(C[C@@H]2CC[C@H]21)C[C@@]1(CCCc2cc(Cl)ccc21)CO3` [Example 46, (1S,3′R,6′R,7′R,8′E,11′S,12′R)-6-chloro-7′-((9aS)-hexahydropyrazino[2,1-c][1,4]oxazin-8(1H)-ylmethyl)-11′,12′-dimethyl-7′-(2-propen-1-yloxy)-3,4-dihydro-2H,15′H-spiro[naphthalene-1,22′-[20]oxa[13]thia[1,14]diazatetracyclo [14.7.2.0~3,6~.0~19,24~]pentacosa[8,16,18,24]tetraen]-15′-one 13′,13′-dioxide], the IC50 in test [1] (setting [6]) is 0.107 nM; in test [2] (setting [7]), 167 nM.

Turning to `CO[C@@]1(Cc2nc(CO)c(C)o2)/C=C/C[C@H](C)[C@@H](C)S(=O)(=O)NC(=O)c2ccc3c(c2)N(C[C@@H]2CC[C@H]21)C[C@@]1(CCCc2cc(Cl)ccc21)CO3` [Example 100584, (1S,3′R,6′R,7′S,8′E,11′S,12′R)-6-chloro-7′-((4-(hydroxymethyl)-5-methyl-1,3-oxazol-2-yl)methyl)-7′-methoxy-11′,12′-dimethyl-3,4-dihydro-2H,15′H-spiro[naphthalene-1,22′-[20]oxa[13]thia[1,14]diazatetracyclo [14.7.2.0~3,6~.0~19,24~]pentacosa[8,16,18,24]tetraen]-15′-one 13′,13′-dioxide], the results for the 50% inhibitory concentration (IC50) in test [1] (setting [3]) and in test [2] (setting [4]) were 0.139 nM and 349 nM, respectively.

As for `C[C@@H]1[C@@H](C)CCC[C@@](O)(C2CCN(C)CC2)[C@@H]2CC[C@H]2CN2C[C@@]3(CCCc4cc(Cl)ccc43)COc3ccc(cc32)C(=O)NS1(=O)=O` [Example 100382, (1S,3′R,6′R,7′R,11′S,12′R)-6-chloro-7′-hydroxy-11′,12′-dimethyl-7′-(1-methyl-4-piperidinyl)-3,4-dihydro-2H,15′H-spiro[naphthalene-1,22′-[20]oxa[13]thia[1,14]diazatetracyclo [14.7.2.0~3,6~.0~19,24~]pentacosa[16,18,24]trien]-15′-one 13′,13′-dioxide], the IC50 is 0.471 nM in test [1] (setting [3]) and 312 nM in test [2] (setting [5]).
